# Measurements taken from PubChem BioAssay AID463222 (The Scripps Research Institute Molecular Screening Center, 2010).
# Activity calls are given as the source filed them. How the calls were made is not given here.
# Target: Serine/threonine-protein phosphatase 5 (Homo sapiens) (UniProt P53041)
# Assay: PP5 phosphatase inhibitors, OMFP substrate, late-stage follow-up, biochemical, fluorescence, single concentration (AID 463222)
# Conditions: PP5 OMFP dephosphorylation, at 6.7 µM, active compounds read high
# Chain of Serine/threonine-protein phosphatase 5 (Homo sapiens) (P53041 whole entry, looked up): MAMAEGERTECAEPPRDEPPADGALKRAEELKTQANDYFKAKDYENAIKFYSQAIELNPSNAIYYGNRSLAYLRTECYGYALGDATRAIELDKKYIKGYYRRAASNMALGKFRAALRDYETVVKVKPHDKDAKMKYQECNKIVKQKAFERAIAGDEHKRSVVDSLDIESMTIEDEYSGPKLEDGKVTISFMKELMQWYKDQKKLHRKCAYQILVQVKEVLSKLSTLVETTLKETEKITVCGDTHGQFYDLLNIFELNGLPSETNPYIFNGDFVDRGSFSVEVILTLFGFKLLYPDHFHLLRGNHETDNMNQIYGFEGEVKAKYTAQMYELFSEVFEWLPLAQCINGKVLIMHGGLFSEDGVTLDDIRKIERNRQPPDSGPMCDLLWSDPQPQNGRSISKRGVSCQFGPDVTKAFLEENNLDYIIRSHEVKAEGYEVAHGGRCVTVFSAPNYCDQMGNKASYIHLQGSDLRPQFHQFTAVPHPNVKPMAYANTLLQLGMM
row,Structure (SMILES),inhibition
1,Cc1ccc(-n2nc(C(=O)O)cc2-c2ccc(Cl)cc2)cc1,-5.42% (inactive)
2,O=C(O)c1cc(-c2ccc(Cl)cc2)n(-c2cccc(Cl)c2)n1,-5.16% (inactive)
3,c1ccc(-c2nccc(-c3ccc(-n4cnc5ccccc54)cc3)n2)nc1,6.97% (inactive)
4,O=c1[nH]c(Nc2ccccc2)cc2ccccc12,4.67% (inactive)
5,COc1ccc(Cn2c(N)c(C(=O)NCc3ccco3)c3nc4ccccc4nc32)cc1OC,2.29% (inactive)
6,Oc1ccc(/C=N/Nc2cc(N3CCOCC3)nc(N3CCOCC3)n2)c(O)c1,11.4% (inactive)
7,COc1ccc(Sc2nc(-c3ccccn3)ncc2OC)cc1,3.64% (inactive)
8,O=C(Nc1nc(-c2ccccn2)cs1)C1CC(=O)N(c2ccc3c(c2)OCCO3)C1 (stereo not given),2.9% (inactive)
9,COc1cc(Br)c(C(=O)c2nccc3cc(OC)c(OC)cc23)cc1OC,1.12% (inactive)
10,COc1cnc(-c2ccccn2)nc1Sc1ccccc1Cl,3.05% (inactive)
11,CCn1c2ccccc2c2cc(NC(=O)COC(=O)c3ccc(NC(=O)CC#N)cc3)ccc21,-3.03% (inactive)
12,O=C(NC1(O)C(=O)c2ccccc2C1=O)c1ccc(C(F)(F)F)cc1,11.6% (inactive)
13,COc1cnc(-c2ccccn2)nc1Sc1ccc(F)cc1,5.48% (inactive)
14,COc1ccc(Cl)cc1C(=O)Nc1cccc(-c2ccc3nncn3n2)c1,-0.16% (inactive)
15,O=C(O)c1n[nH]nc1-c1ccccc1,53.4%
16,CN1CCN(C(c2ccccn2)c2cc(Cl)c3cccnc3c2O)CC1 (stereo not given),8.11% (inactive)
17,CC(=O)C(C(C)=O)C1(O)C(=O)c2ccccc2C1=O,6.75% (inactive)
18,CCOC(=O)c1sc2nc3c(SCC(=O)O)cc(C(=O)c4cc(F)ccc4O)cn3c(=O)c2c1C,-0.13% (inactive)
19,O=C1CCCC2=C1C1(O)C(=O)c3ccccc3C1(O)O2 (stereo not given),9.53% (inactive)
20,N#Cc1c(N2CCCC(O)C2)nc(N)c2c(N)nc3c(c12)CC(=O)N3C12CC3CC(CC(C3)C1)C2 (stereo not given),2.54% (inactive)
21,Cc1cc(C)c(S(=O)(=O)/N=C2\C=C(Sc3ncn[nH]3)C(=O)c3ccccc32)cc1C,4.08% (inactive)
22,CCOC(=O)c1sc(N2C(=O)C(O)=C(C(=O)c3ccco3)C2c2cccc([N+](=O)[O-])c2)nc1C (stereo not given),-2.08% (inactive)

row,Structure (SMILES),inhibition
1,CCOC(=O)c1cnc(-n2nc(C)cc2C)nc1NCCc1ccccc1,6.83% (inactive)
2,Cc1nnc(NC(=O)C2C3C=CC(O3)C2C(=O)O)s1 (stereo not given),22.3%
3,COc1ccc(C(=O)c2nccc3cc(OC)c(OC)cc23)cc1OC,2.42% (inactive)
4,CCOC(=O)c1cnc(-n2nc(C)cc2C)nc1NC1CCCCC1,3.66% (inactive)
5,O=C(NC1(O)C(=O)c2ccccc2C1=O)c1c(Cl)cccc1Cl,8.39% (inactive)
6,Clc1ccc(-n2nnnc2-c2cnc(-c3ccccn3)nc2-c2cccs2)cc1,-2.47% (inactive)
7,CCOC(=O)c1cnc(-n2cc(C)cn2)nc1NCc1ccc2c(c1)OCO2,2.2% (inactive)
8,CCCCn1c(NC(=O)c2ccco2)c(C(=O)OCC)c2nc3ccccc3nc21,2.48% (inactive)
9,Cc1ccc(C(=O)NNc2cc(N3CCCC3)nc(N3CCCC3)n2)cc1,8.52% (inactive)
10,CCOC(=O)c1cnc(-n2nc(C)cc2C)nc1NC(C)c1ccccc1 (stereo not given),5.83% (inactive)
11,CCOC(=O)C1=C(C)OC2(O)c3ccccc3C(=O)C12O (stereo not given),11.2% (inactive)
12,Cc1ccc(C(=O)NC2(O)C(=O)c3ccccc3C2=O)cc1C,6.31% (inactive)
13,COc1ccc(NC(=O)C2C3CCC(O3)C2C(=O)O)c(OC)c1 (stereo not given),51.1%
14,CCOC(=O)c1cnc(-n2nc(C)cc2C)nc1NCc1ccccc1,3.84% (inactive)
15,COc1ccc(OCCCC(=O)Nc2nc(-c3ccccn3)cs2)cc1,5.93% (inactive)
16,COc1cnc(-c2ccccn2)nc1Sc1ccc(Cl)cc1,4.61% (inactive)
17,COc1ccc2c(Cl)c(C(=O)N/N=C/c3ccc4c(c3)OCO4)sc2c1,-2.37% (inactive)
18,COc1cnc(-c2ccccn2)nc1Oc1cccc(C(F)(F)F)c1,-5.73% (inactive)
19,COc1ccc(CN2C(=O)Cc3c2nc(N)c2c(N)nc(N4CCCCC4)c(C#N)c32)cc1,1.97% (inactive)
20,c1ccc(Nc2nc(-c3ccccn3)cs2)cc1,2.82% (inactive)
21,CCCN(CC1CC1)c1nc(N)c2c(N)nc(OC)cc2c1C#N,2.08% (inactive)
22,O=C(O)c1cc(-c2ccc(Cl)c(Cl)c2)n(-c2ccc(F)cc2)n1,-3.2% (inactive)

row,Structure (SMILES),inhibition
1,Oc1cccc(/C=N/Nc2cc(N3CCCC3)nc(N3CCCC3)n2)c1,9.26% (inactive)
2,CCCCN(CC)c1nc(N)c2c(N)nc(OCC)cc2c1C#N,0.32% (inactive)
3,Nc1nc(-c2ccccn2)nc(N)c1Cc1ccc(Cl)cc1Cl,2.71% (inactive)
4,Nc1cc2nsnc2cc1Br,0.76% (inactive)
5,N#Cc1c(-c2ccc(Cl)cc2)cc(-c2cccs2)nc1SCC(=O)O,-2.49% (inactive)
6,COc1cnc(-c2ccccn2)nc1Sc1ccccc1,3.72% (inactive)
7,COc1ccccc1Sc1nc(-c2ccccn2)ncc1OC,-3.47% (inactive)
8,O=C(O)C1C2CCC(O2)C1C(=O)NC1CCCCC1 (stereo not given),42.5%
9,CC(C)(CS(=O)(=O)[O-])NC(=O)CC[N+](C)(C)CCO,0.86% (inactive)
10,O=C(O)c1cc(-c2ccc(Cl)c(Cl)c2)n(-c2ccccc2)n1,-2.01% (inactive)
11,O=C1Nc2ccccc2N2CCCC12 (stereo not given),-3.11% (inactive)
12,COc1cnc(-c2ccccn2)nc1Sc1cccc(Cl)c1,4.14% (inactive)
13,Oc1ccccc1/C=N/Nc1cc(N2CCCC2)nc(N2CCCC2)n1,7.43% (inactive)
14,COc1cnc(-c2ccccn2)nc1Sc1ccc(C)cc1,2.23% (inactive)
15,O=C(NC1(O)C(=O)c2ccccc2C1=O)c1ccccc1,4.22% (inactive)
16,COc1ccc(NC(=S)Nc2ccc3nsnc3c2)cc1,2.75% (inactive)
17,O=S(=O)(Cc1cc(NCc2ccccc2)nc(-c2ccccn2)n1)c1ccccc1,4.59% (inactive)
18,CCOc1ccc(NC(=S)Nc2ccc3nsnc3c2)cc1,3.93% (inactive)
19,Cc1[nH]n(-c2ccccc2)c(=O)c1C(c1ccc([N+](=O)[O-])cc1)c1c(C)[nH]n(-c2ccccc2)c1=O,-3.88% (inactive)
20,CCOC(=O)c1nn(-c2ccc(C)cc2)c(=O)c2c(N)scc12,-0.12% (inactive)
21,COc1cnc(-c2ccccn2)nc1Oc1cccc(Cl)c1,0.53% (inactive)
